Measured values: patent publication US20250154188A1, “C-GLYCOSIDES AS ANTI-INFLAMMATORY AGENTS” (UNIVERSITY OF PITTSBURGH - OF THE COMMONWEALTH SYSTEM OF …, priority 2022, published 2025)

How the values were obtained:
[1] = tested on: mice with NEC; experiment: Mouse NEC model, ileal inflammation marker mRNA (qRT-PCR); type: in vivo; conditions: neonatal mice, oral gavage 10 mg per kg body weight per day during NEC induction; FIG. 3-7
Source text: Mouse NEC model. Experimental NEC was induced in a well validated and reproducible model in 7-day-old mice of either gender, which were randomly divided into control and test groups, by gavage feeding newborn mice with formula containing Similac Advance infant formula (Abbott Nutrition): Esbilac (PetAg) canine milk replacer, 2:1 ratio, which was supplemented with enteric bacteria made from a stock created from a specimen obtained from an infant with surgical NEC five times per day. Additionally, the mice were subjected to hypoxia (5% O2-95% N2) for 10 min in a hypoxia chamber (Billups-Rothenberg) twice daily for 4 days. The C34 analogues were administered by oral gavage during the induction of NEC at the dose of 10 mg per kg body weight per day. […]
RNA isolation, cDNA synthesis and qPCR. Total RNA was isolated using the RNeasy mini kit (Qiagen) and complementary DNA was synthesized from 0.5 μg RNA using QuantiTect Reverse Transcription kit (Qiagen) following the manufacturer's protocols. The mRNA quantification was performed on the Bio-Rad CFX96 Real-Time System (Bio-Rad) using iTaq™ universal SYBR® Green supermix (Bio-Rad) and Bio-Rad CFX Manager 3.1 software was used to collect data from qRT-PCR. […]
Statistical Analysis. Transcript levels for inflammatory biomarkers were assessed by performing a one-way ANOVA statistical analysis followed by multiple comparison. […]

[2] = tested on: mice with NEC; experiment: Mouse NEC model, H&E staining of ileal tissue sections; type: in vivo; conditions: oral gavage 10 mg per kg body weight per day, FIG. 13
Source text: Mouse NEC model. Experimental NEC was induced in a well validated and reproducible model in 7-day-old mice of either gender, which were randomly divided into control and test groups, by gavage feeding newborn mice with formula containing Similac Advance infant formula (Abbott Nutrition): Esbilac (PetAg) canine milk replacer, 2:1 ratio, which was supplemented with enteric bacteria made from a stock created from a specimen obtained from an infant with surgical NEC five times per day. Additionally, the mice were subjected to hypoxia (5% O2-95% N2) for 10 min in a hypoxia chamber (Billups-Rothenberg) twice daily for 4 days. The C34 analogues were administered by oral gavage during the induction of NEC at the dose of 10 mg per kg body weight per day. Age-matched breast milk-fed mouse pups were used as non-NEC controls. The relative mRNA expression levels of Toll-like receptor 4 (Tlr4) (FIG. 3), interleukin 6 (Il6) (FIG. 4), interleukin 1 beta (Il1b) (FIG. 5), tumor necrosis factor (Tnf) (FIG. 6) and lipocalin 2 (Lcn2) (FIG. 7) were shown.
Hematoxylin and eosin (H&E) staining. […]

CC(C)CC1OC(COC(=O)CC(C)(C)C)C(OC(=O)CC(C)(C)C)C(OC(=O)CC(C)(C)C)C1OC(=O)CC(C)(C)C (centres unmarked) [Compound C281]
necrotizing enterocolitis inflammation markers Tlr4, Il6, Il1b, Tnf, Lcn2 (relative mRNA expression in ileum) [1]: robust response
tissue architecture of the intestinal lining (H&E) [2]: preserve the tissue architecture of the intestinal lining
